The values that follow come from patent publication US8629132B2, “Kinase inhibitors” (Genosco, priority 2009, dated 2014).

Test [1] deals with TNF-α release in THP-1 cells. Put plainly: SYK dependent TNF-α release assay (IgG stimulation). It is filed as cell-based, human. Particulars: for inhibition at 0.3 µM / inhibition at 1 µM: Homo sapiens; for percentage inhibition of TNF-α release compared with R406: IgG stimulated release. How it is done:
(§1) Compounds of the present invention are tested for their effects on TNF-α release in human acute monocytic leukimia cell line (THP-1) to illustrate potential efficacy at the cellular level. TNF-α is a cytokine involved in systemic inflammation and is a member of a group of cytokines that stimulate the acute phase reaction. The primary role of TNF-α is in the regulation of immune cells. TNF-α is known to induce apoptotic cell death and inflammation and to inhibit early tumorigenesis and viral replication. Dysregulation and, in particular, overproduction of TNF-α have been implicated in a variety of human diseases, autoimmune disease, inflammation, arthritis and cancer.
(§2) Production or release of TNF-α is controlled by type of stimulus to which the cell responds. SYK activity is involved in mediating TNF-α production. When stimulated by IgG, cells increase TNF-α production in a SYK dependent manner (i.e., the SYK dependent pathway). However, when stimulated by lipopolysaccharide (LPS), they produce TNF-α in a SYK independent manner.
Compounds of the invention were tested for their TNF-α release effect on THP-1 cells. For SYK dependent TNF-α release assay (i.e., via IgG stimulation), THP-1 cells derived from human monocytic cells were obtained from the American Type Culture Collection (ATCC, Manassas, Va.). This cell line was maintained with an Roswell Park Memorial Institute (RPMI) medium (GIBCO™) containing 10 fetal bovine serum (FBS; GIBCO™) and 0.05 mM 2-mercaptoethanol. The THP-1 cells were seeded at 1×10^5 cells/100 μL/well into human IgG (10 μg/well, INVITROGENT™)-coated 96 well culture plate, and serially diluted compound was then added. After an 18-hour incubation period at 37° C., supernatants were collected for the determination of the TNF-α level by enzyme-linked immunosorbent assay (ELISA), and the remaining cells were subjected to an MTT (yellow tetrazolium salt) assay to determine the cytotoxic effects of compound.

The subject of test [2] is TNF-α release in THP-1 cells. Put plainly: SYK independent TNF-α release assay (LPS stimulation). It is filed as cell-based. Particulars: Homo sapiens, 18-hour incubation. Here is the method: as §1, §2
For SYK independent TNF-α release assay (i.e., via lipopolysaccharide (LPS)-stimulation), THP-1 cells derived from human monocytic cells were obtained from the American Type Culture Collection (ATCC, Manassas, Va.). This cell line was maintained with an RPMI medium (GIBCO™) containing 10 fetal bovine serum (FBS, GIBCO™) and 0.05 mM 2-mercaptoethanol. The THP-1 cells were seeded at 1×10^5 cells/100 μL/well into 96-well culture plates, and treated with lipopolysaccharide (1 μg/ml), and serially diluted compound was then added. After an 18-hour incubation period at 37° C., supernatants were collected for the determination of the TNF-α level by ELISA, and the remaining cells were subjected to an MTT assay to determine the cytotoxic effects.

Test [3] deals with T1, SYK (Homo sapiens, UniProt P43405).
T1 construct: Purified full-length human SYK, ZAP70, PIM1, PYK2; purchased Carna Biosciences
Kind of test: Kinase inhibition assay: SYK. It is filed as biochemical. Here is the method:
(§3) Compounds of the present invention were tested for their capacity to inhibit a kinase panel which includes, but are not limited to, spleen tyrosine kinase (SYK), zeta-chain-associated protein kinase 70 (ZAP70), PTK2B protein tyrosine kinase 2 (PYK2), focal adhesion kinase (FAK), provirus integration of maloney kinase 1 (PIM1), rearranged during transfection kinase (RET), Fms-like tyrosine kinase 3 (FLT3), Janus kinase 2 (JAK2), and leucine-rich repeat kinase 2 (LRRK2).
(§4) Inhibition of SYK, ZAP70, PYK2, FAK, PIM1, RET, FLT3, JAK2 and LRRK2 Kinase Activity
(§5) Compounds of the invention were initially diluted to 10 mM in 100% DMSO (CALBIOCHEM™) for storage and made into kinase buffer solution to create a compound concentration ranging from 1 uM and 10 uM. Serial dilutions of compounds of the invention were dispensed into a 96-well plate (GREINER BIOSCIENCES™) at 6 μL each. Purified full-length human SYK, ZAP70, PIM1, PYK2 and truncated human FAK, RET, FLT3, JAK2, and LRRK2 (CARNA BIOSCIENCES™) were diluted in kinase buffer and added to the compound solutions and pre-incubated for 30 minutes at room temperature (1 hour for PYK2). […] The reaction mixture was incubated for 1 hour (2 hours for PYK2). Following the incubation, the stop solution made with EDTA, water, and Lance detection buffer ([…]™) was added (12μL each) to stop phosphorylation. […] The IC50 value of test compound was calculated at Gradpad Prism 5 unless specified otherwise.

Test [4] addresses T2, RET (Homo sapiens, UniProt P07949).
T2 construct: truncated human FAK, RET, FLT3, JAK2, and LRRK2; purchased Carna Biosciences
T2 sequence (P07949 658-1114 limits assumed): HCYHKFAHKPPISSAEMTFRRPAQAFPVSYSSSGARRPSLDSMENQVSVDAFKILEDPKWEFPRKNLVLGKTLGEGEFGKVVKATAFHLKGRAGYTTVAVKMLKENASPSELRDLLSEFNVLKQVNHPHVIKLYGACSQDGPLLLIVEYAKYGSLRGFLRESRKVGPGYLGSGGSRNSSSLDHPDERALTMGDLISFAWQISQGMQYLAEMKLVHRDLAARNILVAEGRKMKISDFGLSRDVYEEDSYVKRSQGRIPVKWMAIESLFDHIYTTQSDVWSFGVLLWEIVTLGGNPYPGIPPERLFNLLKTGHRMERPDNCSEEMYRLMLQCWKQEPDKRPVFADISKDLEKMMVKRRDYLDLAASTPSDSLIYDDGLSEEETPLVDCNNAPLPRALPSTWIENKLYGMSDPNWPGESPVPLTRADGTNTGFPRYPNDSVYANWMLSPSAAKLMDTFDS
Kind of test: Kinase inhibition assay: RET. Format: biochemical. How it is done: as §3, §4, §5

In test [5] the test system is MV4-11 cells. Kind of test: Cell viability assay: FLT3-ITD-positive cells. It is filed as cell-based, human. To be noted: Homo sapiens, MV4-11; 72-hour incubation; read-out: Viability of FLT3-ITD Induced Cancer Cell Line MV-4-11 (IC50 nM). Here is the method: Compounds of the invention were tested for their effects on inhibition of FLT3-ITD in human acute leukemia cell line (MV4-11). FLT3 is primarily expressed in immature hematopoietic progenitor as well as in mature myeloid cells. It belongs to type III receptor tyrosine kinase (RTK) family including KIT, FMS, and PDGFR. It is activated by binding to FL, which leads to increased kinase activity and activation of downstream signaling pathway including STATS, Ras, and PI3Kinase.
Compounds of the invention were tested for cell viability effect on MV4-11 cells. For cell viability assay, MV4-11 cells expressing human FLT3-ITD were obtained from the American Type Culture Collection (ATCC, Manassas, Va.). This cell line was maintained with an Roswell Park Memorial Institute (RPMI) medium (HyClone™) containing 10 bovine calf serum (BCS; Hyclone™) supplemented iron. The MV4-11 cells were seeded at 2×10^4 cells in 96-well culture plates, and serially diluted compound was then added. After a 72-hour incubation period at 37° C., cell viability was measured using the ATPLite 1 step assay (Perkin-Elmer™) that is based on the quantification of ATP from viable cells. CellTiter Aqueous assay (Promega™) was also performed in parallel as an orthogonal assay. IC50 values were calculated using nonlinear regression and defined as the concentration needed for a 50 reduction in luminescence or absorbance treated versus untreated control cells (Prism™ Software).

Test [6] has as its target T3, FLT3 (Homo sapiens, UniProt P36888).
T3 construct: truncated human FAK, RET, FLT3, JAK2, and LRRK2; purchased Carna Biosciences
T3 sequence (P36888 564-993 limits assumed): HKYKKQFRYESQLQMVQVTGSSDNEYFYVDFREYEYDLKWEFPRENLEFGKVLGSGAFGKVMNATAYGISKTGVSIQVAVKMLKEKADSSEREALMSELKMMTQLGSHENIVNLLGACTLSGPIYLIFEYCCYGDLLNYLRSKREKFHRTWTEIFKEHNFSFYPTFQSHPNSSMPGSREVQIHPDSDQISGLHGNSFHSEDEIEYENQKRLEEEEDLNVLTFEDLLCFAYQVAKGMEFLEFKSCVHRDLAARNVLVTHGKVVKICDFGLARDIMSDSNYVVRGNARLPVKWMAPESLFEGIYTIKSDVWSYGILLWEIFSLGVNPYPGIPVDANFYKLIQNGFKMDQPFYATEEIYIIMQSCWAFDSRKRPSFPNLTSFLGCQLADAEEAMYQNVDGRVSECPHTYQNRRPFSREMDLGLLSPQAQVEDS
Put plainly: Kinase inhibition assay: FLT3. Format: biochemical. How it is done:
as §3, §4, §5

Test [7] deals with JAK2 (Homo sapiens, UniProt O60674). Put plainly: Kinase inhibition assay: JAK2. More on the design: truncated human FAK, RET, FLT3, JAK2, and LRRK2; purchased Carna Biosciences. Format: biochemical. Here is the method:
as §3, §4, §5

Setting [8] is: THP-1 cells, IgG stimulation, 0.3 μM, 18-hour incubation.
[9] abbreviates: THP-1 cells, IgG stimulation, 1 μM, 18-hour incubation.

pIC50: −log10 of the molar value. Entries after “also recorded” stand apart in the source; their conditions may differ. Where a name gives a salt, the structure may show the parent alone.

Chain of JAK2 (O60674 826-1132 limits assumed): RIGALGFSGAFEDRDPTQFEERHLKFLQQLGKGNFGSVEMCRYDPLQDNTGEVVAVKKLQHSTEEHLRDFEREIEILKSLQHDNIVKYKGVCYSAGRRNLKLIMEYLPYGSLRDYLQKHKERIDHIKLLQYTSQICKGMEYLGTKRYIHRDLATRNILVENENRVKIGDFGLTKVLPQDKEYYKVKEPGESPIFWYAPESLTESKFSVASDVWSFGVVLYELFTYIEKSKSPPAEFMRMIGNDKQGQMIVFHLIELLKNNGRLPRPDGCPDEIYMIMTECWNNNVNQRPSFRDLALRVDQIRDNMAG

With `Cc1cc(C)cc(Nc2ncc(F)c(-n3ccc(CN4CC[C@@H](O)C4)c3)n2)c1` [Compound 133, (R)-1-((1-(2-(3,5-dimethylphenyl-amino)-5-fluoropyrimidin-4-yl)-1H-pyrrol-3-yl)methyl)pyrrolidin-3-ol], the inhibition at 0.3 µM in test [1] (setting [8]) was 86.3%; in test [2], 13.8%. Further, the inhibition at 1 µM stood at 99.4% in test [1] (setting [9]) and 14.2% in test [2]. In addition, the “percentage inhibition of TNF-α release compared with R406” value in test [1] (0.3 μM) is on record as “greater that those exhibited by R406; also recorded: greater percentage inhibition”.

As to `Cc1cc(Nc2nccc(-n3cc(CN4CC[C@@H](O)C4)c(C)n3)n2)cc(C)c1OCCN1CCCC1` [Compound 46, (R)-1-((1-(2-(3,5-dimethyl-4-(2-(pyrrolidin-1-yl)ethoxy)phenyl-amino)pyrimidin-4-yl)-3-methyl-1H-pyrazol-4-yl)methyl)pyrrolidin-3-ol], in test [3], the pIC50 is 8.23.

In the case of `COc1cc(Nc2ncc(C)c(-n3cc(C)c(CN4CCCNCC4)c3)n2)cc(OC)c1OC` [Compound 96, 4-(3-((1,4-diazepan-1-yl)methyl)-4-methyl-1H-pyrrol-1-yl)-5-methyl-N-(3,4,5-trimethoxyphenyl)pyrimidin-2-amine trihydrochloride], the pIC50 in test [4] is 8.00; in test [6], 9.28; in test [7], 8.41. Moreover, the IC50 in test [5] amounted to 12.5 nM.

Consider `COc1cc(Nc2ncc(F)c(Nc3ccc4c(n3)NC(=O)C(C)(C)O4)n2)cc(OC)c1OC` [Compound R406, R406, reference compound], for which, in test [1] (setting [8]), the “TNF-α Release Inhibition, IgG stimulation, At 0.3 μM” value is on record as 49.9%. For the same molecule, the “TNF-α Release Inhibition, IgG stimulation, At 1 μM” value in test [1] (setting [9]) stood at 87.4%.

Turning to `Cc1cc(C)cc(Nc2ncc(F)c(-n3cc(C)c(CN(C)C)c3)n2)c1` [Compound 80, 4-(3-((dimethylamino)methyl)-4-methyl-1H-pyrrol-1-yl)-N-(3,5-dimethylphenyl)-5-fluoropyrimidin-2-amine], the inhibition at 0.3 µM was 51.5% in test [1] (setting [8]) and 8.2% in test [2]. The values for the inhibition at 1 µM in test [1] (setting [9]) and in test [2] were 91.1% and 12.5%, respectively.

As to `Cc1cc(C)cc(Nc2ncc(F)c(-n3cc(CN(C)C)c(C)n3)n2)c1` [Compound 77, 4-(4-((dimethylamino)methyl)-3-methyl-1H-pyrazol-1-yl)-N-(3,5-dimethylphenyl)-5-fluoropyrimidin-2-amine], the inhibition at 0.3 µM was found to be 35.3% in test [1] (setting [8]) and 42.2% in test [2]. Also, the inhibition at 1 µM in test [1] (setting [9]) came out at 69.5%; in test [2], 36%.

For `C[C@@H]1C[C@H]2[C@@H]3CCC4=CC(=O)C=C[C@]4(C)[C@@]3(F)[C@@H](O)C[C@]2(C)[C@@]1(O)C(=O)CO` [Dexamethasone, reference compound], the inhibition at 1 µM in test [2] stood at 68.4%.

As to `CCN(CC)CCNC(=O)c1c(C)[nH]c(/C=C2\C(=O)Nc3ccc(F)cc32)c1C` [Sunitinib, reference compound], the IC50 in test [5] was 3.8 nM.

For the molecule `Cc1cc(C)cc(Nc2ncc(F)c(-n3ccc(CN(C)C)c3)n2)c1` [Compound 132, 4-(3-((dimethylamino)methyl)-1H-pyrrol-1-yl)-N-(3,5-dimethylphenyl)-5-fluoropyrimidin-2-amine], the inhibition at 0.3 µM stood at 85.9% in test [1] (setting [8]) and 3.1% in test [2]. For the same molecule, the inhibition at 1 µM in test [1] (setting [9]) was 94.5%; in test [2], 8.2%. In addition, the “percentage inhibition of TNF-α release compared with R406” value in test [1] (0.3 μM) is on record as “greater that those exhibited by R406”.

For the molecule `Cc1cn(-c2ccnc(Nc3ccc4c(ccn4C)c3)n2)cc1CN1CC(O)C1` [Compound 52, 1-((4-methyl-1-(2-(1-methyl-1H-indol-5-ylamino)pyrimidin-4-yl)-1H-pyrrol-3-yl)methyl)azetidin-3-ol], the pIC50 in test [3] is 8.46.

A word on the inhibition: it is the drop in the measured response relative to a control, in per cent. One may read the pIC50 as −log10 of the IC50, conventionally taken in molar units. Higher therefore signals a low IC50. The term IC50 denotes the midpoint of a concentration-inhibition curve.
